Data reported in paper PMC9741287, “Cytotoxic and Luminescent Properties of Novel Organotin Complexes with Chelating Antioxidant Ligand” (Molecules, 2022).
Like-named read-outs stand apart in the source and are kept apart here.

Assays:
[1] = test system: A549 (human lung adenocarcinoma); test: MTT-test A549; assay type: cell-based
Procedure: (§1) Since the investigated compounds are designed as theranostic and cytostatic agents, their toxic impact was evaluated as a standard MTT-test. Cytotoxicity was studied on four cell lines, i.e.,—HCT116 (human colorectal carcinoma), MCF-7 (human breast cancer), A549 (human lung adenocarcinoma), and WI-38 (human fetal lung fibroblast). Obtained results appear to be unorthodox: as it is known, the introduction of an organotin moiety tends to noticeably increase compounds’ toxicity and more lipophilic ones do it better, but in the presented data pattern turns vice versa (Table 3).
(§2) HCT-116 (colon carcinoma), MCF-7 (breast adenocarcinoma), A-549 (lung adenocarcinoma) cell lines, and WI-38 (cell line composed of fibroblasts) were derived from The European Collection of Authenticated Cell Cultures (ECACC, Salisbury, UK), cultured in DMEM medium (Gibco™, Dublin, Ireland) supplemented with 10% fetal bovine serum (Gibco™, Brasilia, Brazil). The cells were cultured in an incubator at 37 °C in a humidified 5% CO2 atmosphere and subcultured two times a week.
(§3) The toxicity of compounds was studied on cultured cell lines according to standard MTT protocol.

[2] = test system: superoxide radical anion O2−• (xanthine-xanthine oxidase system); test: NBT-test, superoxide generated in the xanthine-xanthine oxidase system; assay type: biochemical; details: for I (NBT-Test): 0.006 mL of 5 mM compound in DMSO per 0.3 mL well, 600 s, 560 nm, negative = stimulation
From the text: Xanthine oxidase is molybdenum containing enzyme responsible for purine catabolism in the human organism. It is capable of xanthine oxidation, resulting in uric acid and superoxide radical anion as a side product. The latter one is well-known ROS, and the ability to neutralize it marks the compound as a perspective antioxidant. This is followed by the interaction of O2^−• and nitro-blue tetrazolium resulting in the cycle opening (Scheme 4), which is accompanied by the color change with λmax = 560 nm and can be monitored spectrophotometrically.
The influence of compounds on superoxide radical anion О2^−• generated in the enzymatic system xanthine-xanthine oxidase was estimated as the amount of nitro-blue tetrazolium (NBT) reduced to formazan. The assay was carried out in 96-well plates. The total volume of a single well was 0.3 mL and consisted of 0.27 mL of carbonate buffer (40 mM, pH 10.0) containing EDTA (0.1 mM), 0.006 mL of xanthine (10 mM) in carbonate buffer, 0.003 mL of 0.5% bovine serum albumin in water, 0.003 mL of NBT chloride (2.5 mM) in water, and 0.006 mL of a solution of the studied compound in DMSO (5 mM). Xanthine oxidase (0.012 mL, 0.004 units) in buffer was added to the mixture at rt to start the reaction and the absorption at λmax = 560 nm was recorded for 600 s. The control experiment was performed in the presence of 0.006 mL DMSO without a compound. All experiments were performed in triplicate.
Inhibition was expressed by the Equation (2):I (%) = (ν0/ν0′) × 100%,(2) where v0 and v0′ are initial rates of the enzymatic reaction in the presence and absence (control) of the compounds under study, respectively.
The initial rate (v0 and v0′) was calculated by the Equation (3):ν0 = ΔС/Δt = ΔA/(Δt × ε) = tgα/(Δt × ε),(3)
A1 is the absorbance in the presence of the testing compound at the end of the reaction (600 s), and A0 is the absorbance of the blank solution. ΔA is the difference between A1 and A0. All experiments were performed in triplicate.

[3] = MTT test with HepG2 cells, 48 h; assay type: cell-based; details: human, HepG2 cells; HepG2, 48 h incubation, MTT
Procedure: (§4) Cytotoxic properties of 1 are unusual, so an additional cytotoxicity assay with HepG2 cells was carried out and CC50 values were estimated (Figure 5).
(§5) The fact that ligand 1 itself has cytotoxic properties can be interpreted as the existence of a pharmacological target, specific to 1. The detection of potential targets for ligand 1 involves research on cell cycle influence and many other assays, and will be carried out in future studies.
(§6) Figure 5 An effect of compound 1 at concentrations of 0.001–100 µM on the metabolic activity (viability) of HepG2 cells during 48 h incubation in the MTT test.

[4] = test system: HepG2 cells; test: MTT test with HepG2 cells, 48 h; assay type: cell-based; details: HepG2, 48 h
Procedure: as §4, §5, §6

[5] = test system: MCF-7 (human breast cancer); test: MTT-test MCF-7; assay type: cell-based
Procedure: as §1, §2, §3

[6] = test system: formation of advanced glycation end products (AGEs); test: Antiglycation activity (BSA-glucose, AGE fluorescence); assay type: biochemical; details: for Antiglycation activity, M ± SEM: 24 h at 60 °C
Procedure: The glycation reaction was carried out in a phosphate buffer solution of 0.05 M, pH 7.4. Composition of the reaction medium: 0.36 M glucose solution and 1 mg/mL BSA (fraction V). The test compounds were dissolved in 99% DMSO (final concentration in the reaction medium ~3%). The activity of compound 1 was studied in the concentration range of 1000–0.1 μM, and the activity of aminoguanidine was determined at concentrations of 10,000–1000 μM. Control samples contained an equivalent volume of solvent. The samples were incubated for 24 h at 60 °C.
Data registration was carried out by the spectrofluorimetric method, determining AGE by specific fluorescence at excitation/emission wavelengths of 370/440 nm (spectrofluorimeter M 200 PRO, TECAN Austria GmbH, Grödig, Austria).
In order to exclude false positive results for compounds suppressing AGE fluorescence due to interference, the obtained data were logarithmically normalized according to Equation (4):Fly(log) = 10^(log10(Exp)−log10(Blank)) − 1(4) where Fly(log) is the normalized AGE fluorescence intensity, log10(Exp) and log10(blank) are the decimal logarithms of the actual fluorescence levels of glycated and corresponding non-glycated samples (both containing the test compound and controls).
The activity of other compounds (both non-fluorescent and fluorescent at the wavelengths used) was expressed by the Equation (5):Fly(lin) = Exp − Blank(5) where Fly(lin) is the fluorescence intensity of AGEs, Exp and blank are the actual fluorescence levels of glycated and corresponding non-glycated samples (both those containing the test compound and controls).
Determination of activity expressed as % suppression of fluorescence of AGE, was made according to the Equation (6):% = 100 − (Fly(Exp) × 100/Fly(Contr))(6) where Fly(Exp) and Fly(Contr) are the CPG fluorescence intensity of experimental and control samples, respectively (log-normalized or non-log-normalized).

SMILES	I (NBT-Test) [2] [%]	IC50 [1] [µM]	IC50 [5] [µM]	other results
CC(C)(C)c1cc(C(=O)N/N=C/c2ccccc2O)cc(C(C)(C)C)c1O [Compound 1, Di-tert-butyl-4-hydroxy-N′-(2-hydroxybenzylidene)-benzohydrazine]	0.5 ± 0.1			IC50 ([1]; Homo sapiens, A549): 2.2 ± 0.4 µM; CC50 at 48 h [3]: 12.4 ± 2 µM; Suppression of vital activity relative to the control ([4]; 3 µM): 25.8 ± 4.0%; Minimal concentration that significantly suppresses vital activity ([4]; MTT): 3 µM; IC50 ([5]; Homo sapiens, MCF7): 4.7 ± 0.8 µM; IC50 [6]: 2.8 µM; Antiglycation activity, M ± SEM ([6]; concentration 0.3 µM): −1.9 ± 1.4%; Antiglycation activity, M ± SEM ([6]; concentration 1 µM): 0.6 ± 2.3%; Antiglycation activity, M ± SEM ([6]; concentration 3 µM): 53.9 ± 2.5%; Antiglycation activity, M ± SEM ([6]; concentration 10 µM): 60.1 ± 1.1%; Antiglycation activity, M ± SEM ([6]; concentration 30 µM): 62.0 ± 0.7%; Antiglycation activity, M ± SEM ([6]; concentration 100 µM): 61.6 ± 0.5%; Antiglycation activity, M ± SEM ([6]; concentration 300 µM): 73.2 ± 1.9%; Antiglycation activity, M ± SEM ([6]; concentration 1000 µM): 70.2 ± 8.0%
CC(C)(C)c1cc(C2=NN=Cc3ccccc3[O][Sn]([CH3])([CH3])[O]2)cc(C(C)(C)C)c1O [Compound 2, Me2SnL]	6.3 ± 1.8	2.2 ± 0.7	5.2 ± 1	
C[CH2][Sn]1([CH2]C)[O]C(c2cc(C(C)(C)C)c(O)c(C(C)(C)C)c2)=NN=Cc2ccccc2[O]1 [Compound 3, Et2SnL]	7.3 ± 2.0	1.5 ± 0.5	3.7 ± 0.5	
CCC[CH2][Sn]1([CH2]CCC)[O]C(c2cc(C(C)(C)C)c(O)c(C(C)(C)C)c2)=NN=Cc2ccccc2[O]1 [Compound 4, Bu2SnL]	−4.6 ± 1.2	14.5 ± 4.5	1.01 ± 0.4	
CC(C)(C)c1cc(C2=NN=Cc3ccccc3[O][Sn]([C](C)(C)C)([C](C)(C)C)[O]2)cc(C(C)(C)C)c1O [Compound 5, Bu^t2SnL]	5.9 ± 1.5	43 ± 10	50.4 ± 12.6	
CC(C)(C)c1cc(C2=NN=Cc3ccccc3[O][Sn]([c]3ccccc3)([c]3ccccc3)[O]2)cc(C(C)(C)C)c1O [Compound 6, Ph2SnL]	−28.0 ± 3.6	20.2 ± 4	26.3 ± 3.5	O2−• scavenging in NBT-test [2]: stimulate O2^−· formation instead of inhibiting it
CC(C)(C)c1cc(C2=NN=Cc3ccccc3[O][Sn]([c]3cc(C(C)(C)C)c(O)c(C(C)(C)C)c3)([c]3cc(C(C)(C)C)c(O)c(C(C)(C)C)c3)[O]2)cc(C(C)(C)C)c1O [Compound 7, (2,6-Di-tert-butylphenol)2SnL]	−40.5 ± 4.2	31.9 ± 5.7	32.7 ± 9.5	O2−• scavenging in NBT-test [2]: stimulate O2^−· formation instead of inhibiting it
